A word on the refractive index: it is a measure of how strongly the sample bends light. As usually defined, the mass density is mass per unit of volume.

Numbers after ± are expanded uncertainties.

The nature of data set [1]: refractive index (Na D-line) (dimensionless). The note with it: 298.15 K; 101.33 kPa; Liquid; Standard Abbe refractometry.
The conditions of data set [2]: 298.15 K; 101.33 kPa; Liquid; Pycnometric method.

Turning to `CC(C)CC(C)(C)C` [2,2,4-trimethylpentane], the refractive index in data set [1] was 1.3892 ± 0.0008. Further, the mass density in data set [2] came to 687.5 ± 0.7 kg/m3.

For the compound `CCCCO` [butan-1-ol], the refractive index in data set [1] is 1.3973 ± 0.0007. Also, in data set [2], the mass density is given as 805.8 ± 0.7 kg/m3.

In the case of `CCCO` [propan-1-ol], in data set [1], the refractive index is reported as 1.3833 ± 0.0007. Besides, the mass density in data set [2] was 799.5 ± 0.7 kg/m3.

The values are drawn from the NIST ThermoML archive (doi:10.1021/je200279q).
